In patent US12281143B1, “Insect neuropeptides 1” (Solasta Bio Limited, priority 2023, dated 2025):
Like-named read-outs stand apart in the source and are kept apart here. Where a SMILES comes first, the peptide text is derived from it.

Columns and labels:
Bumblebee = experiment: Bee oral toxicity test adapted from OECD Test No. 247 (Bumblebee, Acute Oral Toxicity Test); format: in vivo; conditions: after 96 hours of application, compared to Imidacloprid (FIG. 10)
Description: Bee oral testing protocol was carried out adapted from OECD Test No. 247: Bumblebee, Acute Oral Toxicity Test. The toxicity of SB—P-46 was compared with a negative control of sucrose or vehicle, and with a current commercial insecticide Imidacloprid.

[1] = tested on: Amrasca biguttula (leaf hopper); conditions: unformulated; 3 and 7 days after application (FIG. 16)
Source text: (§1) The data has been processed in the ARM Field Trials software under license.

Aphis fabae = conditions: unformulated; for reduction in Aphis fabae numbers as a percentage of untreated control crop: vining peas
Source text: as §1

Aphis gossypii = conditions: Greece; cotton; unformulated; counted 3 days following application (FIG. 14)
Source text: as §1
AgriScience conducted a field trial in Greece, investigating the efficacy of insecticidal peptides on aphids on cotton crop.

Myzus persicae = conditions: unformulated peptide; leaf dip; mortality assessed at 72, 96 and 120 hours; compared to vehicle and Spirotetramat (FIGS. 6 and 7)
Description: Dip a 2.5 cm leaf disc into 3 ml of treatment solution allowing the treatment to coat the leaf. Leave the disc to dry for 1 hour and place onto the set agar. Place insects (aphids) onto each of the leaf discs. Each unit is sealed with a close-fitting, ventilated lid. Place the agar dishes in a small plastic tray lined with moist tissue paper and ensure the water trays in the bottom of the incubator are filled with clean water and place within the incubator. An assessment of mortality is made at 72, 96 and 120 hours. Leaf dip assays were performed with unformulated SB—P-46, and compared to a negative control vehicle and a current commercial insecticide Spirotetramat.

CC(C)C[C@H](NC(=O)[C@H](CCCNC(=N)N)NC(=O)[C@@H]1CCCN1C(=O)[C@H](CO)NC(=O)[C@H](Cc1ccccc1)NC(=O)[C@@H]1CCCN1C(=O)[C@@H]1CCCN1C(=O)[C@H](CO)NC(=O)[C@H](Cc1ccc(O)cc1)NC(=O)[C@@H]1CCCN1C(=O)[C@@H]1CCCN1C(=O)[C@@H](N)CO)C(N)=O [SB—P-46, [Hy]-SPPYSPPFSPRL-[NH2]] (H-SPPYSPPFSPRL-NH2)
toxicity to bees (% survival) (Bumblebee): far lower toxicity
activity against naturally infested Amrasca biguttula (leaf hopper) [1]: acted comparably to Flipper insecticide
reduction in Aphis fabae numbers as a percentage of untreated control crop (Aphis fabae; Field trial 1, Chatteris location, counted 14 days following application (FIG. 11)): performed comparably to the conventional insecticides Stealth and Teppeki
reduction in Aphis fabae numbers as a percentage of untreated control crop (Aphis fabae; Wigtoft location, counted 4 days following application (FIG. 12)): similarly efficacious activity
activity against naturally infested Aphis fabae (Aphis fabae; further field trials, 4 and 8 days after application (FIG. 15)): acted comparably to Hallmark Zeon insecticide
reduction in Aphis fabae numbers as a percentage of untreated control crop (Aphis fabae; third PGRO trial (slot trial), Holbeach location, counted 7 days following application, low aphid infestation (FIG. 13)): performed as efficaciously as the conventional pesticides tested
reduction in Aphis gossypii numbers as a percentage of untreated control crop (Aphis gossypii): close efficacy to the conventional pesticide equivalent tested
activity against Myzus persicae (mortality) (Myzus persicae): good activity
